Data on one compound can be found in patent publication US8414926B1, “Nanoparticles with covalently bound surfactant for drug delivery” (University of South Florida, priority 2006, dated 2013).

Counter-ions that a name gives are not always drawn.

The series has as its system human dermal fibroblasts. The experiment in a line: Effect of surfactant combined with control nanoparticles on fibroblasts. The series is classed as cell-based. The note with it: for toxicity to fibroblasts: combined with control nanoparticles, human dermal fibroblasts. Here is the method: FIG. 1 is a graph showing the effect of dodecyl sulfate combined with control nanoparticles against human dermal fibroblasts.
The control nanoparticles were added to the wells as an emulsion having 5% solid content, which reduced the amount of surfactant to 0.75%; therefore, more surfactant was added to the emulsion prior to placement in the cell-containing wells in order to reach the designated amounts of surfactant being tested. […] This may be due to interactions of the surfactant with the nanoparticles, which may prohibit the surfactant from interacting with the cells.

In the case of `CCCCCCCCCCCCOS(=O)(=O)O` [dodecyl sulfate], the toxicity to fibroblasts result by setting is: (1% surfactant) “least toxic”; (9% surfactant) “kills all of the cells”. The “toxicity to fibroblasts combined with control nanoparticles versus without control nanoparticles” value (healthy fibroblasts) is given as “much less toxic”.
